± gives the standard deviation of the averaged measurements.
Key:
Assay in all cases: level (log10 ratio to DMSO vehicle control); higher = higher biomarker level / cell amount than vehicle control
Details in all cases: in DMSO
[1] = compound: O=C(O)C(F)(F)C(F)(F)C(F)(F)C(F)(F)C(F)(F)C(F)(F)C(F)(F)C(F)(F)C(F)(F)C(F)(F)C(F)(F)C(F)(F)F [Perfluorotridecanoic acid]
Protocol: (§1)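 BioMAP Diversity Plus panel of 12 human primary cell co-culture systems (3C, 4H, LPS, SAg, BT, BF4T, BE3C, CASM3C, HDF3CGF, KF3CT, MyoF, Mphg). Compounds were added 1 h before stimulation and left for 24 h (MyoF 48 h; BT 72 h for soluble read-outs or 6 d for IgG). Biomarkers were read by ELISA, cytotoxicity by SRB, PBMC viability and proliferation by Alamar Blue. Each well value was divided by the mean of 8 DMSO control wells on the same plate and log10 transformed; duplicate blinded samples were tested at 4 concentrations.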

[2] = compound: O=C(O)C(F)(F)C(F)(F)C(F)(F)C(F)(F)C(F)(F)C(F)(F)C(F)(F)C(F)(F)C(F)(F)C(F)(F)C(F)(F)C(F)(F)C(F)(F)F [Perfluorotetradecanoic acid]
Protocol: as §1

[3] = compound: O=S(=O)(O)C(F)(F)C(F)(F)C(F)(F)C(F)(F)F [Perfluorobutanesulfonic acid]
Protocol: as §1

[4] = compound: Cn1cnc([N+](=O)[O-])c1Sc1ncnc2[nH]cnc12 [Azathioprine]
Protocol: as §1

[5] = compound: O=C(O)C(F)(F)OC(F)(F)C(F)(F)OC(F)(F)C(F)(F)C(F)(F)C(F)(F)F [Perfluoro-3,6-dioxadecanoic acid]
Protocol: as §1

[6] = compound: N=C(N)C(F)(F)C(F)(F)C(F)(F)C(F)(F)C(F)(F)C(F)(F)C(F)(F)F [Perfluorooctanamidine]
Protocol: as §1

Test System | level (log10) ([1]; 1500 nM) | level (log10) ([1]; 4400 nM) | level (log10) ([1]; 13000 nM) | level (log10) ([1]; 40000 nM) | level (log10) ([2]; 6700 nM) | level (log10) ([2]; 20000 nM) | level (log10) ([3]; 6700 nM) | level (log10) ([3]; 20000 nM) | level (log10) ([3]; 60000 nM) | level (log10) ([4]; 1400 nM) | level (log10) ([4]; 4200 nM) | level (log10) ([4]; 13000 nM) | level (log10) ([4]; 38000 nM) | level (log10) ([5]; 6700 nM) | level (log10) ([5]; 20000 nM) | level (log10) ([5]; 60000 nM) | level (log10) ([6]; 6700 nM) | level (log10) ([6]; 20000 nM) | level (log10) ([6]; 60000 nM)
HDF3CGF:Collagen III | -0.057 ± 0.083 | -0.27 ± 0.037 | -0.261 ± 0.034 | -0.224 ± 0.078 | -0.114 ± 0.057 | -0.094 ± 0.13 | -0.013 ± 0.048 | 0.035 ± 0.016 | 0.047 ± 0.016 | -0.0145 ± 0.074 | -0.114 ± 0.088 | -0.101 ± 0.0064 | -0.22 ± 0.096 | -0.024 ± 0.044 | -0.0885 ± 0.035 | -0.286 ± 0.045 | -0.047 ± 0.018 | -0.196 ± 0.045 | -0.172
HDF3CGF:M-CSF | 0.016 | 0.0145 ± 0.049 | -0.029 ± 0.078 | -0.0295 ± 0.13 | 0.041 ± 0.038 | 0 ± 0.067 | 0.011 ± 0.0085 | 0.0045 ± 0.0035 | 0.0025 ± 0.005 | -0.0255 ± 0.039 | -0.018 ± 0.042 | -0.0595 ± 0.011 | -0.184 ± 0.025 | -0.0555 ± 0.067 | -0.065 ± 0.011 | -0.152 ± 0.0078 | -0.017 ± 0.014 | -0.0485 ± 0.018 | -0.177
3C:CD54/ICAM-1 | 0.001 ± 0.016 | -0.0125 ± 0.019 | -0.0155 ± 0.025 | -0.0105 ± 0.0078 | -0.0005 ± 0.0078 | -0.0045 ± 0.013 | -0.008 ± 0.0014 | 0.0035 ± 0.0021 | 0.0015 ± 0.0021 | 0.0035 ± 0.005 | -0.014 ± 0.031 | -0.0085 ± 0.0092 | -0.016 ± 0.013 | -0.003 ± 0.028 | -0.0025 ± 0.018 | 0.019 ± 0.011 | -0.0065 ± 0.0035 | -0.038 ± 0.013 | -0.049
HDF3CGF:SRB | -0.0195 ± 0.035 | -0.007 ± 0.021 | 0.063 ± 0.054 | 0.067 ± 0.075 | 0.027 ± 0.014 | 0.0205 ± 0.069 | 0.018 ± 0.03 | 0.023 ± 0.013 | 0.004 ± 0.033 | -0.0505 ± 0.04 | -0.053 ± 0.02 | -0.018 ± 0.025 | -0.0325 ± 0.079 | 0.0265 ± 0.033 | 0.0885 ± 0.022 | 0.0485 ± 0.079 | -0.01 ± 0.017 | 0.0155 ± 0.0035 | -0.048
HDF3CGF:CD54/ICAM-1 | -0.016 ± 0.0071 | -0.0075 ± 0.015 | -0.0135 ± 0.064 | -0.0275 ± 0.12 | -0.0015 ± 0.029 | -0.023 ± 0.033 | -0.009 ± 0.016 | -0.0145 ± 0.0021 | 0.003 ± 0.011 | -0.0065 ± 0.011 | 0.0045 ± 0.0078 | 0.0015 ± 0.019 | -0.0195 ± 0.012 | -0.0025 ± 0.021 | -0.0125 ± 0.026 | -0.038 ± 0.04 | -0.0235 ± 0.0064 | -0.014 ± 0.013 | -0.072
